# Assay results reported in patent US8859569B2, “Substituted annellated pyrimidines and use thereof” (Bayer Pharma Aktiengesellschaft, priority 2011, dated 2014).
# Assays:
# [1] = target: T1, recombinant guanylate cyclase reporter cell line (Rattus norvegicus, UniProt P19686+P20595); test: Action on recombinant guanylate cyclase reporter cell line; format: cell-based
# T1 construct: expressed in transfected cells
# T1 sequence (P20595 1-619): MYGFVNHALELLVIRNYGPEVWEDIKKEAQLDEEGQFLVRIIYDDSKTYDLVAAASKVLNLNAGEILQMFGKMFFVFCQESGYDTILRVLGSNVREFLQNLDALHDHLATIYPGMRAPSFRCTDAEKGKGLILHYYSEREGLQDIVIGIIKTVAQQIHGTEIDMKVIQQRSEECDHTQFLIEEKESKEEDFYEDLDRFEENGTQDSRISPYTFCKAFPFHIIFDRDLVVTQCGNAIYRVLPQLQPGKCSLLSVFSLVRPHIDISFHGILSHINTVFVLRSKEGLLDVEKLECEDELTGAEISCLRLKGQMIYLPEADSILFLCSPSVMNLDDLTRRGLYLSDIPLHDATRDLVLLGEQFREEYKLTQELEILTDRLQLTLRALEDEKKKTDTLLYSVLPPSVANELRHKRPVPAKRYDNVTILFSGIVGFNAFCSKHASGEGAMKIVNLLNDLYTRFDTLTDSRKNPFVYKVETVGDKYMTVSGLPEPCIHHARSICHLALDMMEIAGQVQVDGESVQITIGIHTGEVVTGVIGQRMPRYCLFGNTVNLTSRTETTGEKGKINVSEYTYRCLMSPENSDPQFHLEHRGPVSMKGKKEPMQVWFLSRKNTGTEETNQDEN
# T1 sequence (P19686 1-690): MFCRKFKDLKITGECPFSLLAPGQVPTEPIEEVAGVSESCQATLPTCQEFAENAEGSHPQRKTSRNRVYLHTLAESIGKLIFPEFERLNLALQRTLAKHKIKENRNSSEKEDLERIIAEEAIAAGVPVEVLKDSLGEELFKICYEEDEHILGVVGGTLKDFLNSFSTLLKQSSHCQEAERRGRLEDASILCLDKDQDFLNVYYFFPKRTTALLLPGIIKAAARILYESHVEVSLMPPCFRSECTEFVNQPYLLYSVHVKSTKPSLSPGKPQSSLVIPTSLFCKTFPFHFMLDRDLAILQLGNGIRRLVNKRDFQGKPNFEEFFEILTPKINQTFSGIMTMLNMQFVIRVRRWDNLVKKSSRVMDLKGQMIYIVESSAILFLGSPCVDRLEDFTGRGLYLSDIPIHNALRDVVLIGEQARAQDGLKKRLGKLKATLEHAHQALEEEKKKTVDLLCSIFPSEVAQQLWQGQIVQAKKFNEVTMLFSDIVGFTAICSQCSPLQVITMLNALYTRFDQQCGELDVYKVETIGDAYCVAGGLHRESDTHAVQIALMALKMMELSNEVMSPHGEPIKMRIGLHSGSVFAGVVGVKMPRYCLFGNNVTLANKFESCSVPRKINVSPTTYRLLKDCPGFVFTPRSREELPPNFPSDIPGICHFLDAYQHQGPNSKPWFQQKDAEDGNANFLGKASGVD
# Method: B-2. Action on Recombinant Guanylate Cyclase Reporter Cell Line
# The cellular action of the compounds according to the invention is determined on a recombinant guanylate cyclase reporter cell line, as described in F. Wunder et al., Anal. Biochem. 339, 104-112 (2005).
# [2] = target: T2, human phosphodiesterase 5 (PDE-5) (Homo sapiens, UniProt O76074); test: Inhibition of human phosphodiesterase 5 (PDE-5), SPA assay; format: biochemical; details: PDE-5 preparation from human platelets, [8-3H]cGMP substrate
# T2 construct: PDE-5 preparations are obtained from human platelets by lysis; from tissue; host or cells: human platelets
# Method: B-6. Inhibition of Human Phosphodiesterase 5 (PDE-5)
# PDE-5 preparations are obtained from human platelets by lysis (Microfluidizer®, 800 bar, 3 passages), followed by centrifugation (75000 g, 60 min, 4° C.) and ion-exchange chromatography of the supernatant on a Mono Q 10/10 column (linear sodium chloride gradient, elution with a 0.2-0.3M solution of sodium chloride in buffer (20 mM Hepes pH 7.2, 2 mM magnesium chloride). Fractions that have PDE-5 activity are combined (PDE-5 preparation) and stored at −80° C.
# For determining their in-vitro action on human PDE-5, the test substances are dissolved in 100% DMSO and serial dilutions are prepared. Typically, dilution series (1:3) from 200 μM to 0.091 μM are prepared (resultant final concentrations in the test: 4 μM to 0.0018 μM). In each case 2 μL of the diluted solutions of the substance are put in the wells of microtitre plates (Isoplate-96/200W; Perkin-Elmer). Then 50 μL of a dilution of the PDE-5 preparation described above is added. The dilution of the PDE-5 preparation is selected so that during subsequent incubation less than 70% of the substrate is reacted (typical dilution: 1:100; dilution buffer: 50 mM Tris/hydrochloric acid pH 7.5, 8.3 mM magnesium chloride, 1.7 mM EDTA, 0.2% BSA). The substrate [8-^3H]cyclic guanosine-3′,5′-monophosphate (1 μCi/μL; Perkin-Elmer) is diluted 1:2000 with assay buffer (50 mM Tris/hydrochloric acid pH 7.5, 8.3 mM magnesium chloride, 1.7 mM EDTA) to a concentration of 0.0005 μCi/μL. The enzyme reaction is finally started by adding 50 μL (0.025 μCi) of the diluted substrate. The test preparations are incubated for 60 min at room temperature and the reaction is stopped by adding 25 μL of a suspension of 18 mg/mL of Yttrium Scintillation Proximity Beads in water (phosphodiesterase beads for SPA assays, RPNQ 0150, Perkin-Elmer). The microtitre plates are sealed with film and left to stand for 60 min at room temperature. Then the plates are measured for 30 s per well in a Microbeta scintillation counter (Perkin-Elmer). IC50 values are determined on the basis of the graphs plotted of the substance concentration versus the percentage PDE-5 inhibition.
SMILES,MEC (minimal effective concentration) [1],IC50 [2]
"CC1(C)C(=O)Nc2nc(-c3nn(Cc4ccccc4F)c4ncccc34)nc(NC3CCOC3)c21 (racemic) [Example 49, 2-[1-(2-fluorobenzyl)-1H-pyrazolo[3,4-b]pyridin-3-yl]-5,5-dimethyl-4-(tetrahydrofuran-3-ylamino)-5,7-dihydro-6H-pyrrolo[2,3-d]pyrimidin-6-one]",0.3 μm,–
"Cn1nccc1CNc1nc(-c2nn(Cc3ccccc3F)c3ncccc23)nc2c1C(C)(C)C(=O)N2 [Example 40, 2-[1-(2-Fluorobenzyl)-1H-pyrazolo[3,4-b]pyridin-3-yl]-5,5-dimethyl-4-{[(1-methyl-1H-pyrazol-5-yl)methyl]amino}-5,7-dihydro-6H-pyrrolo[2,3-d]pyrimidin-6-one]",0.1 μm,0.011 µM
"Cc1ccc(CNc2nc(-c3nn(Cc4ccccc4F)c4ncccc34)nc3c2C(C)(C)C(=O)N3)o1 [Example 41, 2-[1-(2-fluorobenzyl)-1H-pyrazolo[3,4-b]pyridin-3-yl]-5,5-dimethyl-4-{[(5-methylfuran-2-yl)methyl]amino}-5,7-dihydro-6H-pyrrolo[2,3-d]pyrimidin-6-one]",0.01 μm,0.17 µM
"CC1(C)C(=O)Nc2nc(-c3nn(Cc4ccccc4F)c4ncccc34)nc(NCc3ccccc3F)c21 [Example 42, 4-[(2-fluorobenzyl)amino]-2-[1-(2-fluorobenzyl)-1H-pyrazolo[3,4-b]pyridin-3-yl]-5,5-dimethyl-5,7-dihydro-6H-pyrrolo[2,3-d]pyrimidin-6-one]",0.1 μm,0.12 µM
"CC1(C)C(=O)Nc2nc(-c3nn(Cc4ccccc4F)c4ncccc34)nc(NCC3CC3)c21 [Example 43, 4-[(cyclopropylmethyl)amino]-2-[1-(2-fluorobenzyl)-1H-pyrazolo[3,4-b]pyridin-3-yl]-5,5-dimethyl-5,7-dihydro-6H-pyrrolo[2,3-d]pyrimidin-6-one]",0.03 μm,0.41 µM
"CC(=O)NCCNc1nc(-c2nn(Cc3ccccc3F)c3ncccc23)nc2c1C(C)(C)C(=O)N2 [Example 44, N-[2-({2-[1-(2-fluorobenzyl)-1H-pyrazolo[3,4-b]pyridin-3-yl]-5,5-dimethyl-6-oxo-6,7-dihydro-5H-pyrrolo[2,3-d]pyrimidin-4-yl}amino)ethyl]acetamide]",0.1 μm,0.086 µM
"CC1(C)C(=O)Nc2nc(-c3nn(Cc4ccccc4F)c4ncccc34)nc(NC[C@@H]3CCOC3)c21 [Example 45, 2-[1-(2-fluorobenzyl)-1H-pyrazolo[3,4-b]pyridin-3-yl]-5,5-dimethyl-4-[(tetrahydrofuran-3-ylmethyl)amino]-5,7-dihydro-6H-pyrrolo[2,3-d]pyrimidin-6-one]",0.1 μm,0.078 µM
"CC1(C)C(=O)Nc2nc(-c3nn(Cc4ccccc4F)c4ncccc34)nc(N3CCCCC3)c21 [Example 54, 2-[1-(2-fluorobenzyl)-1H-pyrazolo[3,4-b]pyridin-3-yl]-5,5-dimethyl-4-(piperidin-1-yl)-5,7-dihydro-6H-pyrrolo[2,3-d]pyrimidin-6-one]",0.03 μm,–
"C[C@@H](O)CNc1nc(-c2nn(Cc3ccccc3F)c3ncccc23)nc2c1C(C)(C)C(=O)N2 [Example 57, 2-[1-(2-fluorobenzyl)-1H-pyrazolo[3,4-b]pyridin-3-yl]-4-[(2-hydroxypropyl)amino]-5,5-dimethyl-5,7-dihydro-6H-pyrrolo[2,3-d]pyrimidin-6-one]",–,0.016 µM
"CC1(CNc2nc(-c3nn(Cc4ccccc4F)c4ncccc34)nc3c2C(C)(C)C(=O)N3)COC1 [Example 67, 2-[1-(2-fluorobenzyl)-1H-pyrazolo[3,4-b]pyridin-3-yl]-5,5-dimethyl-4-{[(3-methyloxetan-3-yl)methyl]amino}-5,7-dihydro-6H-pyrrolo[2,3-d]pyrimidin-6-one]",0.03 μm,–
"CC1(C)C(=O)Nc2nc(-c3nn(Cc4ccccc4F)c4ncccc34)nc(NCc3ccc(F)cc3)c21 [Example 77, 4-[(4-fluorobenzyl)amino]-2-[1-(2-fluorobenzyl)-1H-pyrazolo[3,4-b]pyridin-3-yl]-5,5-dimethyl-5,7-dihydro-6H-pyrrolo[2,3-d]pyrimidin-6-one]",0.1 μm,–
"C[C@H](Nc1nc(-c2nn(Cc3ccccc3F)c3ncccc23)nc2c1C(C)(C)C(=O)N2)C(N)=O [Example 79, N2-{2-[1-(2-fluorobenzyl)-1H-pyrazolo[3,4-b]pyridin-3-yl]-5,5-dimethyl-6-oxo-6,7-dihydro-5H-pyrrolo[2,3-d]pyrimidin-4-yl}-L-alaninamide]",0.1 μm,–
"CC1(C)C(=O)Nc2nc(-c3nn(Cc4ccccc4F)c4ncccc34)nc(NCC3CCCC3)c21 [Example 80, 4-[(cyclopentylmethyl)amino]-2-[1-(2-fluorobenzyl)-1H-pyrazolo[3,4-b]pyridin-3-yl]-5,5-dimethyl-5,7-dihydro-6H-pyrrolo[2,3-d]pyrimidin-6-one]",0.03 μm,–
"CC1(C)C(=O)Nc2nc(-c3nn(Cc4ccccc4F)c4ncccc34)nc(N3CCNC(=O)C3)c21 [Example 82, 2-[1-(2-fluorobenzyl)-1H-pyrazolo[3,4-b]pyridin-3-yl]-5,5-dimethyl-4-(3-oxopiperazin-1-yl)-5,7-dihydro-6H-pyrrolo[2,3-d]pyrimidin-6-one]",0.1 μm,–
"CCOC(=O)C1(C)C(=O)Nc2nc(-c3nn(Cc4ccccc4F)c4ncccc34)nc(O)c21 (stereo not drawn) [Example 101, Ethyl-2-[1-(2-fluorobenzyl)-1H-pyrazolo[3,4-b]pyridin-3-yl]-4-hydroxy-5-methyl-6-oxo-6,7-dihydro-5H-pyrrolo[2,3-d]pyrimidine-5-carboxylate]",–,0.87 µM
